The target of the assay is T1, F508del (Homo sapiens, UniProt P13569, DEL508-508).
T1 construct: expressed in transfected cells
Description: Protocol 1: membrane potential optical assay (FLIPR III, voltage sensing dye), identification of potentiator compounds. It counts as cell-based. The following applies: Table 3, compounds of Table 1. The method, boiled down:
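NIH3T3 F508del cells, 27° C × 24 hrs; compound/DMSO pretreat → redistribution dye load → single forskolin addition with Cl⁻ gradient (gluconate-substituted bath, HEPES pH 7.4). FLIPR III membrane-potential fluorescence read.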

This passage reports EC30 results from US10758534B2 (Vertex Pharmaceuticals Incorporated, priority 2014, dated 2020).

T1 sequence (P13569 with tags, fused parts or gaps DEL508-508): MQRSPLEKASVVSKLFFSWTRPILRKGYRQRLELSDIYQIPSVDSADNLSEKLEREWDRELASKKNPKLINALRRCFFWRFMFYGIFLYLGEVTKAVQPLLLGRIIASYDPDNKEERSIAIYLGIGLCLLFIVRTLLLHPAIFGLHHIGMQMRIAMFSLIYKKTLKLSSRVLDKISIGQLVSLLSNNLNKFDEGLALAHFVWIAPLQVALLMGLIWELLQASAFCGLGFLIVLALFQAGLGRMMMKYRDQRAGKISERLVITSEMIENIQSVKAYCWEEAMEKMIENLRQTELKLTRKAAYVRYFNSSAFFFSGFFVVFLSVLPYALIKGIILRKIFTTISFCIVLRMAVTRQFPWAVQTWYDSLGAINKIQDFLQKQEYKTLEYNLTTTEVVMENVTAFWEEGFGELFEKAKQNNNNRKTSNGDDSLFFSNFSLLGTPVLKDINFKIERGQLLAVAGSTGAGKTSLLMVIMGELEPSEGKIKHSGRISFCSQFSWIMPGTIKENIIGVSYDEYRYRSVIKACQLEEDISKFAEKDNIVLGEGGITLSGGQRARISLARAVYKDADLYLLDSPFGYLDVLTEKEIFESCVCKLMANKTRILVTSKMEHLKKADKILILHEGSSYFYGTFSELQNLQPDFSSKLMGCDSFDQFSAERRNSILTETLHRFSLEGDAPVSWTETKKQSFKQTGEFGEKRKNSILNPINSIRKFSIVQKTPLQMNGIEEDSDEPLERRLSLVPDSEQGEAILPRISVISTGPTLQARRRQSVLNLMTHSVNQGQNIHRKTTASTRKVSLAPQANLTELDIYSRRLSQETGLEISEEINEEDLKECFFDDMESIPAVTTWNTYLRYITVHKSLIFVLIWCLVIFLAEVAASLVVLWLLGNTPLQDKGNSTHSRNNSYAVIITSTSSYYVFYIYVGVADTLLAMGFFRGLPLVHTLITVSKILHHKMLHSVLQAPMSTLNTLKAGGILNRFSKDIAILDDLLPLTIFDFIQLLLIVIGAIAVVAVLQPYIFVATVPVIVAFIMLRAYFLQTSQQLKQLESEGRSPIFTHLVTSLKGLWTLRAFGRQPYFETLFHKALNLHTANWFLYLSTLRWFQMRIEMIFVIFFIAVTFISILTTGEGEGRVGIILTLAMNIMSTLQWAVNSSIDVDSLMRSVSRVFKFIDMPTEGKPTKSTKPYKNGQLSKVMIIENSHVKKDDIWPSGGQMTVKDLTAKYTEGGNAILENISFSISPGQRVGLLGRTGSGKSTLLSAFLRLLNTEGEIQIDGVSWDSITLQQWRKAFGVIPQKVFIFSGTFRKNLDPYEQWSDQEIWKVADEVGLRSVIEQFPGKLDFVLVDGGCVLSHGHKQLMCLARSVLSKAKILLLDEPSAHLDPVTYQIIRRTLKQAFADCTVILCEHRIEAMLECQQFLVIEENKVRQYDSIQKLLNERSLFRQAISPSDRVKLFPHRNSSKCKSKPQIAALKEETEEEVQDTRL

Take `Cc1ccc(C(=O)NS(=O)(=O)c2cccc(N)n2)c(N2C[C@@H](C)CC2(C)C)n1` [Compound 1420, N-[(6-amino-2-pyridyl)sulfonyl]-6-methyl-2-[(4S)-2,2,4-trimethylpyrrolidin-1-yl]pyridine-3-carboxamide]: the EC30 result is “++ (“++” means between 3 uM and 10 uM)”.

For `CC(C)COc1cc(F)cc(-c2ccc(C(=O)NS(=O)(=O)c3ccn[nH]3)c(N3CCC(C)(C)C3C)n2)c1` (stereo not drawn) [Compound 952, 6-(3-fluoro-5-isobutoxy-phenyl)-N-(1H-pyrazol-5-ylsulfonyl)-2-(2,3,3-trimethylpyrrolidin-1-yl)pyridine-3-carboxamide], the EC30 result is reported as “+++ (“+++” means <3 uM)”.

For the molecule `Cc1cc(C)c(Oc2ncc(-c3ccccc3C(C)(C)C)cc2C(=O)NS(=O)(=O)c2cccc(N)n2)c(C)c1` [Compound 868, N-[(6-amino-2-pyridyl)sulfonyl]-5-(2-tert-butylphenyl)-2-(2,4,6-trimethylphenoxy)pyridine-3-carboxamide], the EC30 result is listed as “+++ (“+++” means <3 uM)”.

In the case of `Cc1cc(C)c(Oc2nc(-c3ccc(OC(C)C)nc3)ccc2C(=O)NS(=O)(=O)c2cccc(N)n2)c(C)c1` [Compound 1163, N-[(6-amino-2-pyridyl)sulfonyl]-6-(6-isopropoxy-3-pyridyl)-2-(2,4,6-trimethylphenoxy)pyridine-3-carboxamide], the EC30 result is recorded as “+++ (“+++” means <3 uM)”.

`CCOc1cccc(-c2ccc(C(=O)NS(=O)(=O)c3cccnc3N)c(N3C[C@@H](C)CC3(C)C)n2)c1F` [Compound 1847, N-[(2-amino-3-pyridyl)sulfonyl]-6-(3-ethoxy-2-fluoro-phenyl)-2-[(4S)-2,2,4-trimethylpyrrolidin-1-yl]pyridine-3-carboxamide]: the EC30 entry was “+++ (“+++” means <3 uM)”.

As to `Cc1cc(C)c(Oc2ncc(C3(C)CC3)cc2C(=O)NS(=O)(=O)c2cccc(N)n2)c(C)c1` [Compound 854, N-[(6-amino-2-pyridyl)sulfonyl]-5-(1-methylcyclopropyl)-2-(2,4,6-trimethylphenoxy)pyridine-3-carboxamide], the EC30 result was “++ (“++” means between 3 uM and 10 uM)”.

On to `COc1ccc(-c2ccc(C(=O)NS(=O)(=O)c3ccc[nH]c3=O)c(Oc3c(C)cc(C)cc3C)n2)c(F)c1` [Compound 839, 6-(2-fluoro-4-methoxy-phenyl)-N-[(2-oxo-1H-pyridin-3-yl)sulfonyl]-2-(2,4,6-trimethylphenoxy)pyridine-3-carboxamide], for which the EC30 entry was “++ (“++” means between 3 uM and 10 uM)”.

As to `CC(C)COc1cc(F)cc(-c2ccc(C(=O)NS(=O)(=O)N3CCCC(O)C3)c(N3C[C@@H](C)CC3(C)C)n2)c1` (stereo partly drawn) [Compound 1608, 6-(3-fluoro-5-isobutoxy-phenyl)-N-[(3-hydroxy-1-piperidyl)sulfonyl]-2-[(4S)-2,2,4-trimethylpyrrolidin-1-yl]pyridine-3-carboxamide], the EC30 result is given as “+++ (“+++” means <3 uM)”.

In the case of `CC1CN(c2ncc(-c3ccccc3)cc2C(=O)NS(=O)(=O)c2cccc(N)n2)C(C)(C)C1` (stereo not drawn) [Compound 1384, N-[(6-amino-2-pyridyl)sulfonyl]-5-phenyl-2-(2,2,4-trimethylpyrrolidin-1-yl)pyridine-3-carboxamide], the EC30 result is listed as “+++ (“+++” means <3 uM)”.

In the case of `CC(C)COc1cc(F)cc(-c2ccc(C(=O)NS(=O)(=O)c3cccc(N)n3)c(OC3C(C)CCCC3C)n2)c1` (stereo not drawn) [Compound 978, N-[(6-amino-2-pyridyl)sulfonyl]-2-(2,6-dimethylcyclohexoxy)-6-(3-fluoro-5-isobutoxy-phenyl)pyridine-3-carboxamide], the EC30 entry was “+++ (“+++” means <3 uM)”.

Regarding `CCOc1cccc2c1CN(Cc1c(C)cc(C)cc1C)C2(C)C(=O)NS(=O)(=O)c1ccc(Cl)c(N)n1` (stereo not drawn) [Compound 1596, N-[(6-amino-5-chloro-2-pyridyl)sulfonyl]-4-ethoxy-1-methyl-2-[(2,4,6-trimethylphenyl)methyl]isoindoline-1-carboxamide], the EC30 entry is “+++ (“+++” means <3 uM)”.

With `Cc1ccc(F)c(-c2nc(C(C)(C)C)ccc2C(=O)NS(=O)(=O)c2cccc(N)c2)c1` [Compound 1350, N-(3-aminophenyl)sulfonyl-6-tert-butyl-2-(2-fluoro-5-methyl-phenyl)pyridine-3-carboxamide], the EC30 entry is on record as “+ (“+” means greater than 10 uM)”.

For `CC(C)Oc1ccc(-c2ccc(C(=O)NS(=O)(=O)c3cccc(N)n3)c(N(C)C3CCCC3)n2)cn1` [Compound 1025, N-[(6-amino-2-pyridyl)sulfonyl]-2-[cyclopentyl(methyl)amino]-6-(6-isopropoxy-3-pyridyl)pyridine-3-carboxamide], the EC30 entry is recorded as “+++ (“+++” means <3 uM)”.

As for `Cc1cc(C)c(Oc2nc(-c3cccc(OCC(C)C)c3F)ccc2C(=O)NS(=O)(=O)c2ccc[nH]c2=O)c(C)c1` [Compound 804, 6-(2-fluoro-3-isobutoxy-phenyl)-N-[(2-oxo-1H-pyridin-3-yl)sulfonyl]-2-(2,4,6-trimethylphenoxy)pyridine-3-carboxamide], the EC30 entry is recorded as “+++ (“+++” means <3 uM)”.

Regarding `Cc1cc(C)c(Oc2nc(-c3ccc4[nH]ncc4c3)ccc2C(=O)NS(=O)(=O)c2cccc(N)n2)c(C)c1` [Compound 856, N-[(6-amino-2-pyridyl)sulfonyl]-6-(1H-indazol-5-yl)-2-(2,4,6-trimethylphenoxy)pyridine-3-carboxamide], the EC30 entry was “++ (“++” means between 3 uM and 10 uM)”.

Regarding `CC(C)Oc1ccc(-c2nc(N3C[C@H](C)CC3(C)C)ccc2C(=O)NS(=O)(=O)c2cccc(N)n2)cn1` [Compound 1491, N-[(6-amino-2-pyridyl)sulfonyl]-2-(6-isopropoxy-3-pyridyl)-6-[(4R)-2,2,4-trimethylpyrrolidin-1-yl]pyridine-3-carboxamide], the EC30 entry was “++ (“++” means between 3 uM and 10 uM)”.

In the case of `Cc1cc(C)c(Oc2nc(C3=COCC3)ccc2C(=O)NS(=O)(=O)c2cccc(N)n2)c(C)c1` [Compound 1412, N-[(6-amino-2-pyridyl)sulfonyl]-6-(2,3-dihydrofuran-4-yl)-2-(2,4,6-trimethylphenoxy)pyridine-3-carboxamide], the EC30 result was “+++ (“+++” means <3 uM)”.

For `C[C@@H]1CN(c2nc(-c3ccc(C(F)(F)F)cc3)ccc2C(=O)NS(=O)(=O)N2CC[C@H](N)C2)C(C)(C)C1` [Compound 1900, N-[(3S)-3-aminopyrrolidin-1-yl]sulfonyl-6-[4-(trifluoromethyl)phenyl]-2-[(4S)-2,2,4-trimethylpyrrolidin-1-yl]pyridine-3-carboxamide], the EC30 entry is “++ (“++” means between 3 uM and 10 uM)”.

As to `CCC/C=C/c1cc(C(=O)NS(=O)(=O)c2cccc(N)n2)c(N2C[C@@H](C)CC2(C)C)nc1C(C)(C)C` [Compound 1617, N-[(6-amino-2-pyridyl)sulfonyl]-6-tert-butyl-5-[(E)-pent-1-enyl]-2-[(4S)-2,2,4-trimethylpyrrolidin-1-yl]pyridine-3-carboxamide], the EC30 entry was “+++ (“+++” means <3 uM)”.

`CCOc1cccc2c1CN(Cc1c(C)cc(C)cc1C)C2(C)C(=O)NS(=O)(=O)c1ccccc1O` (stereo not drawn) [Compound 1509, 4-ethoxy-N-(2-hydroxyphenyl)sulfonyl-1-methyl-2-[(2,4,6-trimethylphenyl)methyl]isoindoline-1-carboxamide]: the EC30 result is “+++ (“+++” means <3 uM)”.

For `COc1ccc(-c2cc(C(=O)NS(=O)(=O)c3cccc(N)c3)n(C(C)c3ccccc3)n2)cc1` (stereo not drawn) [Compound 1024, N-(3-aminophenyl)sulfonyl-5-(4-methoxyphenyl)-2-(1-phenylethyl)pyrazole-3-carboxamide], the EC30 entry is “++ (“++” means between 3 uM and 10 uM)”.

`CCOc1cccc2c1CN(Cc1c(C)cccc1F)C2(C)C(=O)NS(=O)(=O)c1cccc(N)n1` (stereo not drawn) [Compound 1392, N-[(6-amino-2-pyridyl)sulfonyl]-4-ethoxy-2-[(2-fluoro-6-methyl-phenyl)methyl]-1-methyl-isoindoline-1-carboxamide]: the EC30 entry was “+++ (“+++” means <3 uM)”.

`Cc1cc(C)c(Oc2nc(C3(C)CC3)ccc2C(=O)NS(=O)(=O)c2ccc(N)cc2)c(C)c1` [Compound 1297, N-(4-aminophenyl)sulfonyl-6-(1-methylcyclopropyl)-2-(2,4,6-trimethylphenoxy)pyridine-3-carboxamide]: the EC30 entry was “+++ (“+++” means <3 uM)”.

With `CNc1ccc(C(=O)NS(=O)(=O)c2cccc(N)n2)c(Oc2c(C)cc(C)cc2C)n1` [Compound 983, N-[(6-amino-2-pyridyl)sulfonyl]-6-(methylamino)-2-(2,4,6-trimethylphenoxy)pyridine-3-carboxamide], the EC30 result was “++ (“++” means between 3 uM and 10 uM)”.

Turning to `COc1ccc(-c2ccc(C(=O)NS(=O)(=O)c3ccc[nH]c3=O)c(N3C[C@@H](C)CC3(C)C)n2)c(OC)n1` [Compound 1853, 6-(2,6-dimethoxy-3-pyridyl)-N-[(2-oxo-1H-pyridin-3-yl)sulfonyl]-2-[(4S)-2,2,4-trimethylpyrrolidin-1-yl]pyridine-3-carboxamide], the EC30 result is “++ (“++” means between 3 uM and 10 uM)”.

On to `Cc1cc(OCC(C)C)cc(-c2ccc(C(=O)NS(=O)(=O)c3cccc(N)n3)c(N3C[C@@H](C)CC3(C)C)n2)c1` [Compound 1646, N-[(6-amino-2-pyridyl)sulfonyl]-6-(3-isobutoxy-5-methyl-phenyl)-2-[(4 S)-2,2,4-trimethylpyrrolidin-1-yl]pyridine-3-carboxamide], for which the EC30 result is recorded as “+++ (“+++” means <3 uM)”.

For the molecule `CC(C)COc1cc(F)cc(-c2ccc(C(=O)NS(=O)(=O)N3CC[C@H](N)C3)c(N3C[C@@H](C)CC3(C)C)n2)c1` [Compound 1557, N-[(3S)-3-aminopyrrolidin-1-yl]sulfonyl-6-(3-fluoro-5-isobutoxy-phenyl)-2-[(4S)-2,2,4-trimethylpyrrolidin-1-yl]pyridine-3-carboxamide], the EC30 result is “+++ (“+++” means <3 uM)”.
